From the supplement of paper PMC11061612

What was measured:
Assay in all cases: Bliss excess, mean over the matrix (fraction); higher = more synergy
KS-1 (Glioblastoma) = system: KS-1 (Glioblastoma)
In short: (§1)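 After 24 hours at 37°C and 5% CO2 in 1536-well plates, cells in DMEM/F12 or RPMI plus 10% FBS received two-drug dose matrices for 72 hours. Viability came from CellTiter-Glo 2.0 luminescence and was scaled as inhibition, anchored at 0 by vehicle wells and at 1 by blank wells. Combination Emax is taken as the second-highest inhibition in the matrix, and Bliss excess as the observed combination effect less EA + EB − EA·EB, with EA and EB the single-agent effects.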

[1] = system: BE-13 (T-Lymphoblastic Leukemia)
In short: as §1

[2] = system: NCI-H524 (Small Cell Lung Carcinoma)
In short: as §1

A673 (Ewing's Sarcoma) = system: A673 (Ewing's Sarcoma)
In short: as §1

[3] = system: ESS-1 (Other Solid Carcinomas)
In short: as §1

GAMG (Glioblastoma) = system: GAMG (Glioblastoma)
In short: as §1

EW-11 (Ewing's Sarcoma) = system: EW-11 (Ewing's Sarcoma)
In short: as §1

[4] = system: OVCAR-5 (Ovarian Carcinoma)
In short: as §1

[5] = system: SAS (Oral Cavity Carcinoma)
In short: as §1

MPP-89 (Mesothelioma) = system: MPP-89 (Mesothelioma)
In short: as §1

[6] = system: CAL-33 (Oral Cavity Carcinoma)
In short: as §1

[7] = system: Detroit562 (Head and Neck Carcinoma)
In short: as §1

[8] = system: NCI-H1568 (Lung Adenocarcinoma)
In short: as §1

[9] = system: LCLC-97TM1 (Non-Small Cell Lung Carcinoma)
In short: as §1

[10] = system: HeLa (Cervical Carcinoma)
In short: as §1

[11] = system: ALL-PO (B-Lymphoblastic Leukemia)
In short: as §1

[12] = system: L-428 (Hodgkin's Lymphoma)
In short: as §1

[13] = system: NUGC-4 (Gastric Carcinoma)
In short: as §1

BE2-M17 (Neuroblastoma) = system: BE2-M17 (Neuroblastoma)
In short: as §1

[14] = system: Hs-746T (Gastric Carcinoma)
In short: as §1

N#Cc1cnc(Nc2cc(NC[C@H]3CNCCO3)c(C(F)(F)F)cn2)cn1 [SRA737] + C=CCn1c(=O)c2cnc(Nc3ccc(N4CCN(C)CC4)cc3)nc2n1-c1cccc(C(C)(C)O)n1 [AZD1775] (first compound max 10 µM, partner max 1 µM)
Bliss excess (KS-1 (Glioblastoma)): 0.0472
Bliss excess [1]: 0.0657
Bliss excess [2]: 0.108
Bliss excess (A673 (Ewing's Sarcoma)): 0.0914
Bliss excess [3]: 0.12
Bliss excess (GAMG (Glioblastoma)): 0.0904
Bliss excess (EW-11 (Ewing's Sarcoma)): 0.0992
Bliss excess [4]: 0.0274
Bliss excess [5]: 0.0236
Bliss excess (MPP-89 (Mesothelioma)): 0.041

Cc1cc2ncnn2cc1Nc1ncc2c(n1)n(C1CCOCC1)c(=O)n2C [AZD7648] + CN(C)CCCOc1ccc(-c2ccc3ncc4c(c3c2)n(C2CCOCC2)c(=O)n4C)cn1 [AZD0156] (first compound max 10 µM, 7x7, partner max 1 µM)
Bliss excess (KS-1 (Glioblastoma)): -0.068
Bliss excess [1]: -0.0188
Bliss excess [2]: 0.0254
Bliss excess (A673 (Ewing's Sarcoma)): -0.0142
Bliss excess [6]: 0.0227
Bliss excess [3]: 0.0364
Bliss excess (GAMG (Glioblastoma)): -0.058
Bliss excess [7]: 0.0129
Bliss excess [8]: -0.0213
Bliss excess [9]: -0.0042
Bliss excess [10]: 0.0376
Bliss excess (EW-11 (Ewing's Sarcoma)): -0.0549
Bliss excess [4]: -0.0244
Bliss excess [5]: 0.0623
Bliss excess (MPP-89 (Mesothelioma)): 0.0139
Bliss excess [11]: 0.0524
Bliss excess [12]: 0.069
Bliss excess [13]: 0.0034
Bliss excess (BE2-M17 (Neuroblastoma)): -0.0026
Bliss excess [14]: -0.024

N#Cc1cnc(Nc2cc(NC[C@H]3CNCCO3)c(C(F)(F)F)cn2)cn1 [SRA737] + CCc1c2c(nc3ccc(O)cc13)-c1cc3c(c(=O)n1C2)COC(=O)[C@]3(O)CC [SN-38] (first compound max 10 µM, 7x7, partner max 0.3 µM)
Bliss excess (KS-1 (Glioblastoma)): -0.0798
Bliss excess [1]: 0.057
Bliss excess [2]: 0.113
Bliss excess (A673 (Ewing's Sarcoma)): -0.0511
Bliss excess [3]: -0.0091
Bliss excess (GAMG (Glioblastoma)): 0.0754
Bliss excess (EW-11 (Ewing's Sarcoma)): -0.132
Bliss excess [4]: -0.0048
Bliss excess [5]: -0.0333
Bliss excess (MPP-89 (Mesothelioma)): 0.0191

C[C@@H](c1ccc2nccn2c1)n1nnc2ncc(-c3cnn(C)c3)nc21 [Savolitinib] + CC1(C)CCC(CN2CCN(c3ccc(C(=O)NS(=O)(=O)c4ccc(NCC5CCOCC5)c([N+](=O)[O-])c4)c(Oc4cnc5[nH]ccc5c4)c3)CC2)=C(c2ccc(Cl)cc2)C1 [Venetoclax] (first compound max 1 µM, 7x7, partner max 1 µM)
Bliss excess (KS-1 (Glioblastoma)): -0.0476
Bliss excess [1]: -0.0307
Bliss excess [2]: -0.0066
Bliss excess (A673 (Ewing's Sarcoma)): -0.0673
Bliss excess [6]: -0.0211
Bliss excess [3]: -0.0241
Bliss excess (GAMG (Glioblastoma)): -0.0257
Bliss excess [7]: -0.0322
Bliss excess [8]: -0.0575
Bliss excess [9]: -0.0427
Bliss excess [10]: -0.0374
Bliss excess (EW-11 (Ewing's Sarcoma)): -0.0096
Bliss excess [4]: -0.0597
Bliss excess [5]: -0.0388
Bliss excess (MPP-89 (Mesothelioma)): -0.0566
Bliss excess [11]: 0.035
Bliss excess [12]: -0.0284
Bliss excess [13]: -0.0817
Bliss excess (BE2-M17 (Neuroblastoma)): -0.0656
Bliss excess [14]: -0.0105

Cc1cc2ncnn2cc1Nc1ncc2c(n1)n(C1CCOCC1)c(=O)n2C [AZD7648] + O=C(c1cc(Cc2n[nH]c(=O)c3ccccc23)ccc1F)N1CCN(C(=O)C2CC2)CC1 [Olaparib] (first compound max 10 µM, 7x7, partner max 10 µM)
Bliss excess (KS-1 (Glioblastoma)): -0.0355
Bliss excess [1]: -0.0079
Bliss excess [2]: -0.0698
Bliss excess (A673 (Ewing's Sarcoma)): -0.015
Bliss excess [6]: -0.0237
Bliss excess [3]: -0.0721
Bliss excess (GAMG (Glioblastoma)): -0.0608
Bliss excess [7]: -0.0108
Bliss excess [8]: -0.0307
Bliss excess [9]: -0.0218
Bliss excess [10]: -0.0016
Bliss excess (EW-11 (Ewing's Sarcoma)): -0.0826
Bliss excess [4]: -0.0349
Bliss excess [5]: -0.0245
Bliss excess (MPP-89 (Mesothelioma)): -0.0163
Bliss excess [11]: -0.0202
Bliss excess [12]: -0.019
Bliss excess [13]: -0.049
Bliss excess (BE2-M17 (Neuroblastoma)): 0.0754
Bliss excess [14]: -0.0732

CN(CCO)CC[C@H](CSc1ccccc1)Nc1ccc(S(=O)(=O)NC(=O)c2ccc(N3CCC([C@@H](O)c4ccccc4-c4ccc(Cl)cc4)CC3)cc2)cc1S(=O)(=O)C(F)(F)F [AZD4320] + CCN(CCO)CCCOc1ccc2c(Nc3cc(CC(=O)Nc4cccc(F)c4)[nH]n3)ncnc2c1 [AZD2811] (first compound max 1 µM, 7x7, partner max 1 µM)
Bliss excess (KS-1 (Glioblastoma)): 0.0261
Bliss excess [1]: 0.0663
Bliss excess [2]: -0.0163
Bliss excess (A673 (Ewing's Sarcoma)): 0.0819
Bliss excess [6]: 0.0228
Bliss excess [3]: 0.21
Bliss excess (GAMG (Glioblastoma)): 0.119
Bliss excess [7]: 0.0043
Bliss excess [8]: -0.0102
Bliss excess [9]: 0.0642
Bliss excess [10]: -0.0242
Bliss excess (EW-11 (Ewing's Sarcoma)): -0.0439
Bliss excess [4]: -0.0458
Bliss excess [5]: -0.037
Bliss excess (MPP-89 (Mesothelioma)): 0.0246
Bliss excess [11]: -0.009
Bliss excess [12]: 0.0083
Bliss excess [13]: -0.0407
Bliss excess (BE2-M17 (Neuroblastoma)): 0.12
Bliss excess [14]: -0.0095

Cc1cc2ncnn2cc1Nc1ncc2c(n1)n(C1CCOCC1)c(=O)n2C [AZD7648] + COc1cc([C@@H]2c3cc4c(cc3[C@@H](O[C@@H]3O[C@@H]5CO[C@@H](C)O[C@H]5[C@H](O)[C@H]3O)[C@H]3COC(=O)[C@H]23)OCO4)cc(OC)c1O [Etoposide] (first compound max 10 µM, 7x7, partner max 10 µM)
Bliss excess (KS-1 (Glioblastoma)): 0.0894
Bliss excess [1]: 0.0881
Bliss excess [2]: 0.101
Bliss excess (A673 (Ewing's Sarcoma)): 0.111
Bliss excess [3]: 0.113
Bliss excess (GAMG (Glioblastoma)): 0.147
Bliss excess (EW-11 (Ewing's Sarcoma)): 0.0002
Bliss excess [4]: 0.0481
Bliss excess [5]: 0.118
Bliss excess (MPP-89 (Mesothelioma)): 0.0858

Cc1cc2ncnn2cc1Nc1ncc2c(n1)n(C1CCOCC1)c(=O)n2C [AZD7648] + CCN(CCO)CCCOc1ccc2c(Nc3cc(CC(=O)Nc4cccc(F)c4)[nH]n3)ncnc2c1 [AZD2811] (first compound max 10 µM, 7x7, partner max 1 µM)
Bliss excess (KS-1 (Glioblastoma)): -0.0405
Bliss excess [1]: -0.066
Bliss excess [2]: -0.0043
Bliss excess (A673 (Ewing's Sarcoma)): -0.0672
Bliss excess [6]: -0.0089
Bliss excess [3]: 0.128
Bliss excess (GAMG (Glioblastoma)): 0.0192
Bliss excess [7]: -0.0142
Bliss excess [8]: -0.0172
Bliss excess [9]: 0.0467
Bliss excess [10]: 0.0511
Bliss excess (EW-11 (Ewing's Sarcoma)): -0.0298
Bliss excess [4]: 0.043
Bliss excess [5]: 0.0058
Bliss excess (MPP-89 (Mesothelioma)): 0.0023
Bliss excess [11]: 0.0236
Bliss excess [12]: 0.0783
Bliss excess [13]: -0.0257
Bliss excess (BE2-M17 (Neuroblastoma)): 0.01
Bliss excess [14]: -0.0291
